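Five concentrations, 48 hours, 96-well plates. GI50 = concentration required for 50% inhibition of growth. TGI: concentration producing complete growth inhibition.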
What was measured:
Test in all cases: NCI tumour cell line growth inhibition, 48 h
[1] = tested on: CAKI-1 renal
[2] = tested on: HCT-116 colon
[3] = tested on: HL-60(TB) leukemia
[4] = tested on: EKVX NSCLC
[5] = tested on: SNB-75 CNS
[6] = tested on: SF-295 CNS
[7] = tested on: NCI-H460 lung
[8] = tested on: A549 NSCLC
[9] = tested on: M14 melanoma
[10] = tested on: KM12 colon
[11] = tested on: PC-3 prostate
[12] = tested on: TK-10 renal
[13] = tested on: U251 CNS
[14] = tested on: MALME-3M melanoma
[15] = tested on: UO-31 renal
[16] = tested on: OVCAR-8 ovarian
[17] = tested on: OVCAR-5 ovarian
[18] = tested on: HT29 colon
[19] = tested on: NCI-H226 lung
[20] = tested on: OVCAR-4 ovarian
[21] = tested on: SK-MEL-5 melanoma
[22] = tested on: NCI-H522 lung
[23] = tested on: DU-145 prostate
[24] = tested on: IGROV1 ovarian
[25] = tested on: SK-MEL-2 melanoma
[26] = tested on: UACC-257 melanoma
[27] = tested on: MDA-MB-231 breast
[28] = tested on: SF-268 CNS
[29] = tested on: NCI-H23 lung
[30] = tested on: SK-OV-3 ovarian
[31] = tested on: SN12C renal
[32] = tested on: MOLT-4 leukemia
[33] = tested on: OVCAR-3 ovarian
[34] = tested on: SK-MEL-28 melanoma
[35] = tested on: HCT-15 colon
[36] = tested on: COLO 205 colon
[37] = tested on: MDA-MB-435
[38] = tested on: SW-620 colon
[39] = tested on: NCI/ADR-RES ovarian
[40] = tested on: ACHN renal
[41] = tested on: MCF7 breast
[42] = tested on: 786-0 renal
[43] = tested on: UACC-62 melanoma
[44] = tested on: HS 578T breast
[45] = tested on: SNB-19 CNS
[46] = tested on: K-562 leukemia
[47] = tested on: HOP-62 NSCLC
[48] = tested on: RXF 393 renal
[49] = tested on: HOP-92 NSCLC
[50] = tested on: SF-539 CNS
[51] = tested on: SR leukemia
[52] = tested on: T-47D breast
[53] = tested on: RPMI-8226 leukemia
[54] = tested on: HCC-2998 colon
[55] = tested on: LOX IMVI melanoma
[56] = tested on: BT-549 breast
[57] = tested on: CCRF-CEM leukemia
[58] = tested on: A498 renal

Work on `NC(=S)c1cccc(C2Nc3ccccc3O2)c1` (centres undefined) yielded a TGI [1] greater than 100 µM, a TGI [2] greater than 100 µM and a TGI [3] greater than 100 µM. It also gave a TGI [4] greater than 100 µM, a TGI [5] greater than 100 µM and a TGI [6] greater than 100 µM. For the same compound, the TGI [7] was greater than 100 µM, the TGI [8] was greater than 100 µM and the TGI [9] was greater than 100 µM. For the same compound, the TGI [10] was greater than 100 µM, the TGI [11] was greater than 100 µM and the TGI [12] was greater than 100 µM. For the same compound, the TGI [13] was greater than 100 µM, the TGI [14] was greater than 100 µM and the TGI [15] was greater than 100 µM. The TGI [16] was greater than 100 µM, the TGI [17] was greater than 100 µM and the TGI [18] was greater than 100 µM. For the same compound, the TGI [19] was greater than 100 µM, the TGI [20] was greater than 100 µM and the TGI [21] was greater than 100 µM. The TGI [22] was greater than 100 µM, the TGI [23] was greater than 100 µM and the TGI [24] was greater than 100 µM. For the same compound, the TGI [25] was greater than 100 µM, the TGI [26] was greater than 100 µM and the TGI [27] was greater than 100 µM. For the same compound, the TGI [28] was greater than 100 µM, the TGI [29] was greater than 100 µM and the TGI [30] was greater than 100 µM. For the same compound, the TGI [31] was 12.1 µM, the TGI [32] was greater than 100 µM and the TGI [33] was greater than 100 µM. For the same compound, the TGI [34] was greater than 100 µM, the TGI [35] was greater than 100 µM and the TGI [36] was greater than 100 µM. It also gave a TGI [37] greater than 100 µM, a TGI [38] greater than 100 µM and a TGI [39] greater than 100 µM. For the same compound, the TGI [40] was greater than 100 µM, the TGI [41] was greater than 100 µM and the TGI [42] was greater than 100 µM. It also gave a TGI [43] of 96.2 µM, a TGI [44] greater than 100 µM and a TGI [45] greater than 100 µM. It also gave a TGI [46] greater than 100 µM, a TGI [47] greater than 100 µM and a TGI [48] greater than 100 µM. For the same compound, the TGI [49] was greater than 100 µM, the TGI [50] was greater than 100 µM and the TGI [51] was greater than 100 µM. The TGI [52] was greater than 100 µM.

Compound `Cc1c(C(=O)O)sc2nc[nH]c(=O)c12` has a TGI [1] greater than 100 µM, a TGI [2] greater than 100 µM and a TGI [3] greater than 100 µM. For the same compound, the TGI [4] was greater than 100 µM, the TGI [5] was greater than 100 µM and the TGI [6] was greater than 100 µM. For the same compound, the TGI [7] was greater than 100 µM, the TGI [8] was greater than 100 µM and the TGI [9] was greater than 100 µM. For the same compound, the TGI [10] was greater than 100 µM, the TGI [11] was greater than 100 µM and the TGI [12] was greater than 100 µM. For the same compound, the TGI [13] was greater than 100 µM, the TGI [14] was greater than 100 µM and the TGI [15] was greater than 100 µM. The TGI [16] was greater than 100 µM, the TGI [17] was greater than 100 µM and the TGI [18] was greater than 100 µM. The TGI [19] was greater than 100 µM, the TGI [20] was greater than 100 µM and the TGI [21] was greater than 100 µM. It also gave a TGI [22] greater than 100 µM, a TGI [23] greater than 100 µM and a TGI [24] greater than 100 µM. The TGI [25] was greater than 100 µM, the TGI [26] was greater than 100 µM and the TGI [27] was greater than 100 µM. It also gave a TGI [28] greater than 100 µM, a TGI [29] greater than 100 µM and a TGI [30] greater than 100 µM. The TGI [31] was greater than 100 µM, the TGI [32] was greater than 100 µM and the TGI [33] was greater than 100 µM. It also gave a TGI [34] greater than 100 µM, a TGI [35] greater than 100 µM and a TGI [36] greater than 100 µM. It also gave a TGI [53] greater than 100 µM, a TGI [37] greater than 100 µM and a TGI [38] greater than 100 µM. For the same compound, the TGI [39] was greater than 100 µM, the TGI [40] was greater than 100 µM and the TGI [41] was greater than 100 µM. The TGI [42] was greater than 100 µM, the TGI [43] was greater than 100 µM and the TGI [44] was 79.5 µM. The TGI [45] was greater than 100 µM, the TGI [54] was greater than 100 µM and the TGI [46] was greater than 100 µM. The TGI [47] was greater than 100 µM, the TGI [48] was greater than 100 µM and the TGI [49] was greater than 100 µM. The TGI [50] was greater than 100 µM, the TGI [55] was greater than 100 µM and the TGI [52] was greater than 100 µM.

`CSCc1ncc(-c2ccc(C(F)(F)F)cc2)c(NC2CCCCCC2)n1` gave a GI50 [1] greater than 10 µM, a TGI [1] greater than 10 µM and a GI50 [2] greater than 10 µM. It also gave a TGI [2] greater than 10 µM, a GI50 [3] greater than 10 µM and a TGI [3] greater than 10 µM. The GI50 [56] was greater than 10 µM, the TGI [56] was greater than 10 µM and the GI50 [57] was greater than 10 µM. For the same compound, the TGI [57] was greater than 10 µM, the GI50 [5] was greater than 10 µM and the TGI [5] was greater than 10 µM. The GI50 [6] was greater than 10 µM, the TGI [6] was greater than 10 µM and the GI50 [7] was greater than 10 µM. For the same compound, the TGI [7] was greater than 10 µM, the GI50 [8] was greater than 10 µM and the TGI [8] was greater than 10 µM. It also gave a GI50 [9] greater than 10 µM, a TGI [9] greater than 10 µM and a GI50 [10] greater than 10 µM. It also gave a TGI [10] greater than 10 µM, a GI50 [11] greater than 10 µM and a TGI [11] greater than 10 µM. For the same compound, the GI50 [12] was greater than 10 µM, the TGI [12] was greater than 10 µM and the GI50 [13] was greater than 10 µM. The TGI [13] was greater than 10 µM, the GI50 [14] was greater than 10 µM and the TGI [14] was greater than 10 µM. It also gave a GI50 [15] greater than 10 µM, a TGI [15] greater than 10 µM and a GI50 [16] greater than 10 µM. The TGI [16] was greater than 10 µM, the GI50 [58] was greater than 10 µM and the TGI [58] was greater than 10 µM. The GI50 [17] was greater than 10 µM, the TGI [17] was greater than 10 µM and the GI50 [18] was greater than 10 µM. It also gave a TGI [18] greater than 10 µM, a GI50 [19] greater than 10 µM and a TGI [19] greater than 10 µM. It also gave a GI50 [20] greater than 10 µM, a TGI [20] greater than 10 µM and a GI50 [21] greater than 10 µM. It also gave a TGI [21] greater than 10 µM, a GI50 [23] greater than 10 µM and a TGI [23] greater than 10 µM. For the same compound, the GI50 [24] was greater than 10 µM, the TGI [24] was greater than 10 µM and the GI50 [25] was greater than 10 µM. The TGI [25] was greater than 10 µM, the GI50 [26] was greater than 10 µM and the TGI [26] was greater than 10 µM. For the same compound, the GI50 [27] was greater than 10 µM, the TGI [27] was greater than 10 µM and the GI50 [28] was greater than 10 µM. The TGI [28] was greater than 10 µM, the GI50 [29] was greater than 10 µM and the TGI [29] was greater than 10 µM. For the same compound, the GI50 [30] was greater than 10 µM, the TGI [30] was greater than 10 µM and the GI50 [31] was greater than 10 µM. The TGI [31] was greater than 10 µM, the GI50 [32] was greater than 10 µM and the TGI [32] was greater than 10 µM. The GI50 [33] was greater than 10 µM, the TGI [33] was greater than 10 µM and the GI50 [34] was greater than 10 µM. It also gave a TGI [34] greater than 10 µM, a GI50 [35] greater than 10 µM and a TGI [35] greater than 10 µM. The GI50 [36] was greater than 10 µM, the TGI [36] was greater than 10 µM and the GI50 [53] was greater than 10 µM. The TGI [53] was greater than 10 µM, the GI50 [37] was greater than 10 µM and the TGI [37] was greater than 10 µM. For the same compound, the GI50 [38] was greater than 10 µM, the TGI [38] was greater than 10 µM and the GI50 [39] was greater than 10 µM. It also gave a TGI [39] greater than 10 µM, a GI50 [40] greater than 10 µM and a TGI [40] greater than 10 µM. The GI50 [41] was greater than 10 µM, the TGI [41] was greater than 10 µM and the GI50 [42] was greater than 10 µM. It also gave a TGI [42] greater than 10 µM, a GI50 [43] greater than 10 µM and a TGI [43] greater than 10 µM. The GI50 [45] was greater than 10 µM, the TGI [45] was greater than 10 µM and the GI50 [54] was greater than 10 µM. For the same compound, the TGI [54] was greater than 10 µM, the GI50 [46] was greater than 10 µM and the TGI [46] was greater than 10 µM. For the same compound, the GI50 [47] was greater than 10 µM, the TGI [47] was greater than 10 µM and the GI50 [48] was greater than 10 µM. The TGI [48] was greater than 10 µM, the GI50 [50] was greater than 10 µM and the TGI [50] was greater than 10 µM. For the same compound, the GI50 [51] was greater than 10 µM, the TGI [51] was greater than 10 µM and the GI50 [55] was greater than 10 µM. It also gave a TGI [55] greater than 10 µM, a GI50 [52] greater than 10 µM and a TGI [52] greater than 10 µM.

— PubChem BioAssay (NCI)
